Measured values as given in patent publication US8835428B2, “Diacylglycerol acyltransferase inhibitors” (Piramal Enterprises Limited, priority 2008, dated 2014).

Target: T1, hDGAT1 (Homo sapiens, UniProt O75907)
T1 construct: host or cells: Sf9 insect cells (baculovirus); microsomal preparation
T1 sequence (O75907 1-488): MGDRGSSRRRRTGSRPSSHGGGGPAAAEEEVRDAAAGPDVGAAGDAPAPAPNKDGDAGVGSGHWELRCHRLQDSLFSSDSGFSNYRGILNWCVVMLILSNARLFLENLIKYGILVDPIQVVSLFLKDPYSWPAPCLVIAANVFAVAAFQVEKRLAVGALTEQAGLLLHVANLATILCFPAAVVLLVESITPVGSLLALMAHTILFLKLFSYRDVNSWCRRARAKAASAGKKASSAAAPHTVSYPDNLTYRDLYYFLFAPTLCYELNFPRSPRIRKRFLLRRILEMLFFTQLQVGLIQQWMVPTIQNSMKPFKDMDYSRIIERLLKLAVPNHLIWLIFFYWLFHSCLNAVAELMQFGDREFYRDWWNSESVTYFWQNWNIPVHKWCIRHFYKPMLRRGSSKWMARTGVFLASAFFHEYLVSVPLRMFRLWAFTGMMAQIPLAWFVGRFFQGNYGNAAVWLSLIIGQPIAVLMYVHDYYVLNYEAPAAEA
Assay: In-vitro DGAT1 assay (hDGAT1 microsomes from Sf9 cells, 14C oleoyl CoA, triglyceride formation)
Format: biochemical
How it was run: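 Compounds tested in duplicate at 10, 5 and 1 μM for 10 min at 37 °C. Reaction: Sf9-expressed hDGAT1 microsomes (2.5–10 μg), [14C]oleoyl-CoA plus 409.5–1638 μM dioleoylglycerol, pH 7.4 Tris-HCl with fatty-acid-free BSA. Radiolabelled triglyceride extracted into heptane and scintillation-counted.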

COC(=O)C(CC(C)C)NC(=O)c1cc(-c2ccc(NC(=O)Nc3ccc(F)cc3F)cc2)no1 (stereo not shown) [Example 113, Methyl 2-(3-(4-(3-(2,4-difluorophenyl)ureido)phenyl)isoxazole-5-carboxamido)-4-methylpentanoate]
inhibition at 10 µM: 0 to 50%

C=C(NC(=O)c1cc(-c2ccc(NC(=O)Nc3ccccc3F)cc2)no1)C(=O)OC [Example 301, Methyl 2-(3-(4-(3-(2-fluorophenyl)ureido)phenyl)isoxazole-5-carboxamido)acrylate]
inhibition at 5 µM (At 5 μM): 50 to 75%

COc1ccccc1NC(=O)Nc1ccc(-c2cc(C(=O)N[C@H](C(=O)O)C(C)C)on2)cc1 [Example 185, (S)-2-(3-(4-(3-(2-methoxyphenyl)ureido)phenyl)isoxazole-5-carboxamido)-3-methylbutanoic acid]
inhibition at 1 µM: 75 to 100%

Cc1ccc(F)c(NC(=O)Nc2ccc(-c3cc(C(=O)NC(C(=O)O)C(C)C)on3)cc2)c1 (stereo not shown) [Example 156, 2-(3-(4-(3-(2-fluoro-5-methylphenyl)ureido)phenyl)isoxazole-5-carboxamido)-3-methylbutanoic acid]
inhibition at 1 µM: 75 to 100%

CC(C)C(NC(=O)c1cc(-c2ccc(NC(=O)Nc3c(F)cccc3F)cc2)no1)C(=O)O (stereo not shown) [Example 124, 2-(3-(4-(3-(2,6-difluorophenyl)ureido)phenyl)isoxazole-5-carboxamido)-3-methylbutanoic acid]
inhibition at 10 µM: 75 to 100%

COC(=O)C(NC(=O)c1cc(-c2ccc(NC(=O)Nc3ccccc3C)cc2)no1)C(C)C (stereo not shown) [Example 153, Methyl 3-methyl-2-(3-(4-(3-o-tolylureido)phenyl)isoxazole-5-carboxamido) butanoate]
% inhibition of hDGAT1 (At 5 μM): + (>0% Inhibition ≦50)

O=C(O)CCCNC(=O)c1cc(-c2ccc(NC(=O)Nc3ccccc3F)cc2)no1 [Example 254, 4-(3-(4-(3-(2-Fluorophenyl)ureido)phenyl)isoxazole-5-carboxamido) butanoic acid]
inhibition at 5 µM (At 5 μM): 50 to 75%

O=C(Nc1ccc(-c2cc(C(=O)NC(Cc3ccccc3)C(=O)O)on2)cc1)Nc1ccccc1F (stereo not shown) [Example 242, 2-(3-(4-(3-(2-Fluorophenyl)ureido)phenyl)isoxazole-5-carboxamido)-3-phenylpropanoic acid]
inhibition at 5 µM (At 5 μM): 50 to 75%

Cc1cc(C)cc(NC(=O)Nc2ccc(-c3cc(C(=O)N[C@H](C(=O)O)C(C)C)on3)cc2)c1 [Example 205, (S)-2-(3-(4-(3-(3,5-dimethylphenyl)ureido)phenyl)isoxazole-5-carboxamido)-3-methylbutanoic acid]
inhibition at 1 µM: 50 to 75%

O=C(O)c1cc(-c2ccc(Nc3nc4ccc(F)cc4s3)cc2)no1 [Example 2, 3-[4-(6-Fluoro-benzothiazol-2-ylamino)-phenyl]-isoxazole-5-carboxylic acid]
inhibition at 10 µM: 0 to 50%

COC(=O)[C@@H](NC(=NO)c1cc(-c2ccc(Nc3nc4ccc(F)cc4s3)cc2)no1)c1ccccc1 [Example 56, (S)-({3-[4-(6-Fluoro-benzothiazol-2-ylamino)-phenyl]-N-hydroxy-isoxazole-5-carboximidoyl}-amino)-phenyl-acetic acid methyl ester]
inhibition at 10 µM: 0 to 50%

CC(C)C(NC(=O)c1cc(-c2ccc(NC(=O)Nc3ccc(-c4cc(C(=O)NC(C(=O)O)C(C)C)on4)cc3)cc2)no1)C(=O)O (stereo not shown) [Example 282, 2-({3-[4-(3-{4-[5-(1-Carboxy-2-methyl-propylcarbamoyl)-isoxazol-3-yl]-phenyl}-ureido)-phenyl]-isoxazol-5-carbonyl}-amino)-3-methyl-butyric acid]
inhibition at 5 µM (At 5 μM): 0 to 50%

COC(=O)C(NC(=O)c1cc(-c2ccc(NC(=O)Nc3ccc(F)cc3C)cc2)no1)C(C)C (stereo not shown) [Example 284, Methyl 2-(3-(4-(3-(4-fluoro-2-methylphenyl)ureido)phenyl)isoxazole-5-carboxamido)-3-methylbutanoate]
inhibition at 5 µM (At 5 μM): 50 to 75%

COC(=O)C(C)(C)NC(=O)c1cc(-c2ccc(NC(=O)Nc3ccccc3)cc2)no1 [Example 121, Methyl 2-methyl-2-(3-(4-(3-phenylureido)phenyl)isoxazole-5-carboxamido)propanoate]
inhibition at 10 µM: 50 to 75%

CC(C)[C@H](NC(=O)c1cc(-c2ccc(NC(=S)Nc3cccc(F)c3)cc2)no1)C(=O)O [Example 268, (S)-2-(3-(4-(3-(3-fluorophenyl)thioureido)phenyl)isoxazole-5-carboxamido)-3-methylbutanoic acid]
inhibition at 5 µM (At 5 μM): 50 to 75%

COC(=O)[C@@H](NC(=O)c1c(-c2ccc(Nc3nc4ccc(F)cc4s3)cc2)noc1-c1ccccc1)C(C)C [Example 68, (S)-2-({3-[4-(6-Fluoro-benzothiazol-2-ylamino)-phenyl]-5-phenyl-isoxazole-4-carbonyl}-amino)-3-methyl-butyric acid methyl ester]
inhibition at 10 µM: 0 to 50%

CCC(C)[C@H](NC(=O)c1cc(-c2ccc(NC(=O)Nc3ccccc3)cc2)no1)C(=O)O (stereo partly drawn) [Example 79, (S)-3-Methyl-2-({3-[4-(3-phenyl-ureido)-phenyl]-isoxazole-5-carbonyl}-amino)-pentanoic acid]
inhibition at 10 µM: 75 to 100%

CC(C)C(NC(=O)c1cc(-c2ccc(NC(=O)Nc3ccc(C(F)(F)F)cc3)cc2)no1)C(=O)O (stereo not shown) [Example 276, 3-Methyl-2-(3-(4-(3-(4-(trifluoromethyl)phenyl)ureido)phenyl)isoxazole-5-carboxamido)butanoic acid]
inhibition at 5 µM (At 5 μM): 75 to 100%

CC(C)CC(NC(=O)c1cc(-c2ccc(NC(=O)Nc3ccc(F)cc3F)cc2)no1)C(=O)O (stereo not shown) [Example 114, 2-(3-(4-(3-(2,4-Difluorophenyl)ureido)phenyl)isoxazole-5-carboxamido)-4-methylpentanoic acid]
inhibition at 10 µM: 75 to 100%

CC(C)C(NC(=O)c1cc(-c2ccc(NC(=O)Nc3ccc(OC(F)(F)F)cc3Cl)cc2)no1)C(=O)O (stereo not shown) [Example 287, 2-(3-(4-(3-(2-chloro-4-(trifluoromethoxy)phenyl)ureido)phenyl)isoxazole-5-carboxamido)-3-methylbutanoic acid]
inhibition at 1 µM: 75 to 100%

CC(C)[C@H](NC(=O)c1cc(-c2ccc(NC(=O)Nc3ccc(F)cc3C(F)(F)F)cc2)no1)C(=O)O [Example 213, (S)-2-(3-(4-(3-(4-fluoro-2-(trifluoromethyl)phenyl)ureido)phenyl)isoxazole-5-carboxamido)-3-methylbutanoic acid]
inhibition at 1 µM: 50 to 75%

CCS/C(=N\[C@@H](C(=O)OC)C(C)C)c1cc(-c2ccc(NC(=O)Nc3ccc(C)cc3)cc2)no1 [Example 225, (R,Z)-Methyl 2-(ethylthio(3-(4-(3-p-tolylureido)phenyl)isoxazol-5-yl)methyleneamino)-3-methylbutanoate]
inhibition at 1 µM: 0 to 50%

CC(C)[C@H](NC(=NO)c1cc(-c2ccc(Nc3nc4ccc(F)cc4s3)cc2)no1)C(=O)O [Example 8, (S)-2-({3-[4-(6-Fluoro-benzothiazol-2-ylamino)-phenyl]-N-hydroxy-isoxazole-5-carboximidoyl}-amino)-3-methyl-butyric acid]
inhibition at 10 µM: 50 to 75%

COC(=O)C(NC(=O)c1cc(-c2ccc(NC(=O)Nc3c(F)cccc3F)cc2)no1)C(C)C (stereo not shown) [Example 123, Methyl 2-(3-(4-(3-(2,6-difluorophenyl)ureido)phenyl)isoxazole-5-carboxamido)-3-methylbutanoate]
inhibition at 10 µM: 50 to 75%

COC[C@H](NC(=NO)c1cc(-c2ccc(Nc3nc4ccc(F)cc4s3)cc2)no1)C(=O)O [Example 17, (S)-2-({3-[4-(6-Fluoro-benzothiazol-2-ylamino)-phenyl]-N-hydroxy-isoxazole-5-carboximidoyl}-amino)-3-methoxy-propionic acid]
inhibition at 10 µM: 0 to 50%
